Test results: ChEMBL document CHEMBL1143431, “Synthesis and evaluation of pyrazolo[1,5-b]pyridazines as selective cyclin dependent kinase inhibitors” (Bioorg Med Chem Lett, 2008)

Columns and labels:
[1] = target: Cyclin-dependent kinase 2 (Homo sapiens, UniProt P24941); experiment: Inhibition of human CDK2 by HTRF assay
[2] = target: Cyclin-dependent kinase 4 (Homo sapiens, UniProt P11802); experiment: Inhibition of CDK4 by radioactive glutathione plate-binding assay
[3] = target: Glycogen synthase kinase-3 beta (Homo sapiens, UniProt P49841); experiment: Inhibition of GSK3-beta by scintillation proximity assay
Glycogen synthase kinase-3 beta, sequence (P49841 whole entry): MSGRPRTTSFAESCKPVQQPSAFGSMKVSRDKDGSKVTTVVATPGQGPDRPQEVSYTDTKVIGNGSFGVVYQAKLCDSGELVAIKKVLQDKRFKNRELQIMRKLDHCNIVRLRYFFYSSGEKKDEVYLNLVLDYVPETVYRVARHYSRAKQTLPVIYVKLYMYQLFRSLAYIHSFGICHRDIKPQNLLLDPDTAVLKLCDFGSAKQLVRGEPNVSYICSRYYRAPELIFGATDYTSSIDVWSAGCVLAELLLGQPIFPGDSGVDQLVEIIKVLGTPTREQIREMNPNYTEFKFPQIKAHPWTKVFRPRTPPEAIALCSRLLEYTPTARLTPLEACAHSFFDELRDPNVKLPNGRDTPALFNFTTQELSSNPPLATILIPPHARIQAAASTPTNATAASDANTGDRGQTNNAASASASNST

Mus musculus [4] = experiment: Dose normalized AUC in orally dosed mouse; type: ADME, organism-based; details: in vivo, po
[5] = target: Vascular endothelial growth factor receptor 2 (Homo sapiens, UniProt P35968); experiment: Inhibition of VEGFR2 by HTRF assay
Vascular endothelial growth factor receptor 2, sequence (P35968 whole entry): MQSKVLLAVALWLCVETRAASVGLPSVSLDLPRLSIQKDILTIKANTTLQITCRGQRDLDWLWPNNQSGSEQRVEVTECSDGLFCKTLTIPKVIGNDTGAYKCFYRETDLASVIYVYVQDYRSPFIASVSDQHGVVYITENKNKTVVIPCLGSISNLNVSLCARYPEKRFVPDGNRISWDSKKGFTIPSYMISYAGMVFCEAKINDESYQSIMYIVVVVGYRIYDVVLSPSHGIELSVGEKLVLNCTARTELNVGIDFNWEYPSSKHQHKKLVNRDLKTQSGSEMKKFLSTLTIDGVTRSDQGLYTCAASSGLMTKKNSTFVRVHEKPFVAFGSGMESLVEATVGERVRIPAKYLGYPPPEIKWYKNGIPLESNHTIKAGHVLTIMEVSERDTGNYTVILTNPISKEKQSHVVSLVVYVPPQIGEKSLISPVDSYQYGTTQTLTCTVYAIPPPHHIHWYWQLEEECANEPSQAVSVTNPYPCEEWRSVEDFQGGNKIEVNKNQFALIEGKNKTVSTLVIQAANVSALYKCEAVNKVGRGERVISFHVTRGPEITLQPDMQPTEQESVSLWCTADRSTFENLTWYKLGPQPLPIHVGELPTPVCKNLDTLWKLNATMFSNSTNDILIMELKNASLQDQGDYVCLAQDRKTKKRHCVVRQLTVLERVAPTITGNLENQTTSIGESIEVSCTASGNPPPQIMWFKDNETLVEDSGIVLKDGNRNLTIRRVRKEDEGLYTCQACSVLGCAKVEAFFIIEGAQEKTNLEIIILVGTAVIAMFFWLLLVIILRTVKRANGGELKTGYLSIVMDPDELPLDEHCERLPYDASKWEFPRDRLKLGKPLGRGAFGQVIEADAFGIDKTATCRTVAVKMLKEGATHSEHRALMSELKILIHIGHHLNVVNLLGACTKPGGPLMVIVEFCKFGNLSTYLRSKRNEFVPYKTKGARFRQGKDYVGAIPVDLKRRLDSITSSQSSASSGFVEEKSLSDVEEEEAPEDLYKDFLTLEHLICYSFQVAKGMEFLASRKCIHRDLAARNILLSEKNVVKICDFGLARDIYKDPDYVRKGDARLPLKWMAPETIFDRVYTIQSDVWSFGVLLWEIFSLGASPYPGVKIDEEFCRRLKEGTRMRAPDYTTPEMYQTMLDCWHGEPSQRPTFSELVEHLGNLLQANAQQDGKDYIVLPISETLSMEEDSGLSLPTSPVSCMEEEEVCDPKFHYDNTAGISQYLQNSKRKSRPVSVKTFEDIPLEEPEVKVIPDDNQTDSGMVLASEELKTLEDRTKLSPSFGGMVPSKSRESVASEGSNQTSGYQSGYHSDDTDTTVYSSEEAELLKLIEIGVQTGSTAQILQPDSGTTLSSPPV

[6] = Metabolic stability at mouse liver S9 fraction after 60 mins; type: ADME, subcellular; details: read-out: Stability
Mus musculus [7] = experiment: Dose normalized AUC in ip dosed mouse; type: ADME, organism-based; details: in vivo

Cyclin-dependent kinase 4, sequence (P11802 whole entry): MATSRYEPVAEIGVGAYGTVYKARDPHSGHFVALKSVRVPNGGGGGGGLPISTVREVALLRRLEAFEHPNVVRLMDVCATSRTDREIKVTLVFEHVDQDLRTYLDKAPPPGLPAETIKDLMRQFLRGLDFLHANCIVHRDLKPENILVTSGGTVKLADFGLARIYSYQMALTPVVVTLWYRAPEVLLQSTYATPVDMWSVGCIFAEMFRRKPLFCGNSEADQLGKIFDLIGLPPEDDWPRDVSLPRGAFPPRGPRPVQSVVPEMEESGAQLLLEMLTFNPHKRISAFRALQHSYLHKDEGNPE

| SMILES | IC50 [1] | IC50 [2] | IC50 [3] | further results |
| --- | --- | --- | --- | --- |
| O=[N+]([O-])c1ccc(Nc2nccc(-c3cnn4ncccc34)n2)cc1 | 3 nM | 8 nM | 5 nM |  |
| CN1CCN(c2ccc(Nc3nccc(-c4cnn5ncccc45)n3)cc2)CC1 | 100 nM | 12 nM | 200 nM | IC50 [5]: 400 nM |
| CCN(CC)CCNC(=O)c1cccc(Nc2nccc(-c3cnn4ncccc34)n2)c1 | 40 nM | 8 nM | 20 nM |  |
| CC(C)Oc1ccc2c(-c3ccnc(Nc4ccc(N5CCN(C)CC5)cc4)n3)cnn2n1 | 230 nM | 45 nM | 850 nM |  |
| CCc1nn2ncccc2c1-c1ccnc(Nc2ccc(N3CCN(C)CC3)cc2)n1 |  | 25 nM |  | IC50 [5]: 63 nM |
| CCCCc1nn2ncccc2c1-c1ccnc(Nc2ccc(N3CCN(C)CC3)cc2)n1 |  | 800 nM |  | IC50 [5]: 25 nM |
| c1cc(Nc2nccc(-c3cnn4ncccc34)n2)cc(-c2cocn2)c1 | 3 nM | 16 nM | 8 nM |  |
| CCN(CC)Cc1cccc(Nc2nccc(-c3cnn4ncccc34)n2)c1 | 50 nM | 12 nM | 79 nM |  |
| CN(C)CC(O)COc1ccc(Nc2nccc(-c3cnn4nc(N5CCOCC5)ccc34)n2)cc1 (stereo not given) |  | 38 nM |  | remaining at 1 h [6]: 46%; AUC (Mus musculus [7]): > 7000 ng·kg·h/mg/mL |
| CN1CCN(c2ccc(Nc3nccc(-c4cnn5nc(-c6ccc(F)cc6)ccc45)n3)cc2)CC1 | 740 nM | 26 nM | > 25000 nM |  |
| NC(=O)c1ccc(Nc2nccc(-c3cnn4ncccc34)n2)cc1 | 16 nM | 160 nM | 20 nM |  |
| Cc1nn2ncccc2c1-c1ccnc(Nc2ccc(N3CCN(C)CC3)cc2)n1 |  | 50 nM |  | IC50 [5]: 63 nM |
| FC(F)(F)CNc1nccc(-c2cnn3ncccc23)n1 [GW683003X] | 1000 nM | 1000 nM | > 32000 nM |  |
| c1cnn2ncc(-c3ccnc(NCCCN4CCOCC4)n3)c2c1 [GW683109X] |  | 3200 nM |  |  |

Now from value to compound, other results behind:

| IC50 [1] | IC50 [2] | IC50 [3] | SMILES | further results |
| --- | --- | --- | --- | --- |
| 2 nM | 25 nM | 5 nM | N#Cc1ccc(Nc2nccc(-c3cnn4ncccc34)n2)cc1 |  |
|  | 1600 nM | 25000 nM | CC(C)Oc1ccc2c(-c3ccnc(NC4CC4)n3)cnn2n1 | AUC (Mus musculus [4]): > 1000 ng·kg·h/mg/mL |
|  | > 40000 nM |  | CCCCc1nn2ncccc2c1-c1ccnc(NC2CC2)n1 | IC50 [5]: 2500 nM |
|  | 250 nM | > 32000 nM | Fc1ccc(-c2ccc3c(-c4ccnc(NC5CC5)n4)cnn3n2)cc1 |  |
|  | 160 nM | 25000 nM | c1cc(-c2cnn3nc(NC4CCCC4)ccc23)nc(NC2CC2)n1 |  |
|  | 200 nM | 3200 nM | C=Cc1ccc2c(-c3ccnc(NC4CC4)n3)cnn2n1 |  |
|  | 500 nM | 25000 nM | c1cc(-c2cnn3nc(N4CCCC4)ccc23)nc(NC2CC2)n1 |  |
|  | 1300 nM | 25000 nM | Oc1ccc2c(-c3ccnc(NC4CC4)n3)cnn2n1 |  |
|  | 800 nM |  | Cc1nn2ncccc2c1-c1ccnc(NC2CC2)n1 | IC50 [5]: > 20000 nM |
|  | 250 nM | > 32000 nM | c1csc(-c2ccc3c(-c4ccnc(NC5CC5)n4)cnn3n2)c1 |  |
|  | 2000 nM | 25000 nM | COc1ccc2c(-c3ccnc(NC4CC4)n3)cnn2n1 |  |
| 40 nM | 790 nM | 50 nM | O=C(O)c1ccc(Nc2nccc(-c3cnn4ncccc34)n2)cc1 |  |
|  | 80 nM |  | c1cnn2ncc(-c3ccnc(NC4CC4)n3)c2c1 | IC50 [5]: > 20000 nM; remaining at 1 h [6]: 85% |
| 0.3 nM | 0.3 nM |  | O=[N+]([O-])c1cccc(Nc2nccc(-c3cnn4ncccc34)n2)c1 |  |
|  | 2000 nM |  | CCc1nn2ncccc2c1-c1ccnc(NC2CC2)n1 [GW683768X] | IC50 [5]: 3200 nM |
|  | 400 nM |  | c1cc(-c2cnn3nc(N4CCOCC4)ccc23)nc(NC2CC2)n1 [GW708336X] | AUC (Mus musculus [4]): > 1000 ng·kg·h/mg/mL |
| 2 nM | 4 nM |  | N#Cc1cccc(Nc2nccc(-c3cnn4ncccc34)n2)c1 [GW778894X] |  |
| 1000 nM | 1000 nM |  | Clc1ccc(CNc2nccc(-c3cnn4ncccc34)n2)cc1 [GW781673X] |  |
| 40 nM |  | 16 nM | CC(C)c1ccc(Nc2nccc(-c3cnn4ncccc34)n2)cc1 [GW805758X] |  |
